Assay results published in the supplement of paper PMC10733146.

Legend:
Experiment in all cases: viability relative to DMSO control (fraction); higher = less drug effect (more viable cells)
Conditions in all cases: 48 h
[1] = system: primary AML patient cells (S002)
Outline: (§1)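 The cells were primary mononuclear tumour cells, either fresh or cryopreserved, isolated by Ficoll from blood or bone marrow or derived from processed lymph node. Each well of a 384-well plate received 4 × 10^4 cells onto compounds pre-plated at five concentrations, with one well per concentration. The medium was RPMI-1640 with penicillin/streptomycin, L-glutamine and human serum, and plates stood at 37 °C and 5% CO2 for 48 h. Viability is reported as CellTiter-Glo luminescence relative to the median of 16 inner DMSO wells.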

[2] = system: primary AML patient cells (S007)
Outline: as §1

[3] = system: primary AML patient cells (S009)
Outline: as §1

[4] = system: primary AML patient cells (S019)
Outline: as §1

[5] = system: primary AML patient cells (S025)
Outline: as §1

[6] = system: primary AML patient cells (S037)
Outline: as §1

[7] = system: primary AML patient cells (S071)
Outline: as §1

[8] = system: primary AML patient cells (S072)
Outline: as §1

[9] = system: primary AML patient cells (S079)
Outline: as §1

[10] = system: primary AML patient cells (S089)
Outline: as §1

[11] = system: primary AML patient cells (S091)
Outline: as §1

[12] = system: primary DLBCL patient cells (S049)
Outline: as §1

[13] = system: primary DLBCL patient cells (S076)
Outline: as §1

[14] = system: primary DLBCL patient cells (S082)
Outline: as §1

[15] = system: primary MCL patient cells (S041)
Outline: as §1

[16] = system: primary T-NHL patient cells (S058)
Outline: as §1

[17] = system: primary T-PLL patient cells (S008)
Outline: as §1

Work on `Cc1cc(Nc2ncc(Cl)c(Nc3ccccc3S(=O)(=O)C(C)C)n2)c(OC(C)C)cc1C1CCNCC1` [Ceritinib] yielded a viability ([1]; 0.024 µM) of 1.12, a viability ([1]; 0.12 µM) of 0.926 and a viability ([1]; 0.6 µM) of 0.861. For the same compound, the viability ([1]; 3 µM) was 0.616, the viability ([1]; 15 µM) was 0.0299 and the viability ([2]; 0.024 µM) was 0.837. It also gave a viability ([2]; 0.12 µM) of 0.718, a viability ([2]; 0.6 µM) of 0.559 and a viability ([2]; 3 µM) of 0.173. The viability ([2]; 15 µM) was 0.0192, the viability ([3]; 0.024 µM) was 0.937 and the viability ([3]; 0.12 µM) was 0.903. It also gave a viability ([3]; 0.6 µM) of 0.823, a viability ([3]; 3 µM) of 0.754 and a viability ([3]; 15 µM) of 0.0293. It also gave a viability ([4]; 0.024 µM) of 1.08, a viability ([4]; 0.12 µM) of 1 and a viability ([4]; 0.6 µM) of 1.03. The viability ([4]; 3 µM) was 0.773, the viability ([4]; 15 µM) was 0.0262 and the viability ([5]; 0.024 µM) was 0.985. It also gave a viability ([5]; 0.12 µM) of 0.874, a viability ([5]; 0.6 µM) of 0.838 and a viability ([5]; 3 µM) of 0.508. It also gave a viability ([5]; 15 µM) of 0.0191, a viability ([6]; 0.024 µM) of 1.5 and a viability ([6]; 0.12 µM) of 0.922. The viability ([6]; 0.6 µM) was 1.12, the viability ([6]; 3 µM) was 0.742 and the viability ([6]; 15 µM) was 0.296. It also gave a viability ([7]; 0.024 µM) of 0.865, a viability ([7]; 0.12 µM) of 0.781 and a viability ([7]; 0.6 µM) of 0.476. For the same compound, the viability ([7]; 3 µM) was 0.174, the viability ([7]; 15 µM) was 0.0165 and the viability ([8]; 0.024 µM) was 0.954. It also gave a viability ([8]; 0.12 µM) of 0.939, a viability ([8]; 0.6 µM) of 0.79 and a viability ([8]; 3 µM) of 0.582. For the same compound, the viability ([8]; 15 µM) was 0.0168, the viability ([9]; 0.024 µM) was 0.964 and the viability ([9]; 0.12 µM) was 0.933. For the same compound, the viability ([9]; 0.6 µM) was 0.844, the viability ([9]; 3 µM) was 0.738 and the viability ([9]; 15 µM) was 0.0169. It also gave a viability ([10]; 0.024 µM) of 0.974, a viability ([10]; 0.12 µM) of 0.866 and a viability ([10]; 0.6 µM) of 0.562. The viability ([10]; 3 µM) was 0.393, the viability ([10]; 15 µM) was 0.0151 and the viability ([11]; 0.024 µM) was 0.947. The viability ([11]; 0.12 µM) was 0.77, the viability ([11]; 0.6 µM) was 0.436 and the viability ([11]; 3 µM) was 0.176. It also gave a viability ([11]; 15 µM) of 0.0224, a viability ([12]; 0.024 µM) of 0.897 and a viability ([12]; 0.12 µM) of 0.84. It also gave a viability ([12]; 0.6 µM) of 0.771, a viability ([12]; 3 µM) of 0.4 and a viability ([12]; 15 µM) of 0.0197. For the same compound, the viability ([13]; 0.024 µM) was 1.02, the viability ([13]; 0.12 µM) was 0.996 and the viability ([13]; 0.6 µM) was 0.964. For the same compound, the viability ([13]; 3 µM) was 0.721, the viability ([13]; 15 µM) was 0.0181 and the viability ([14]; 0.024 µM) was 1.05. The viability ([14]; 0.12 µM) was 1.04, the viability ([14]; 0.6 µM) was 0.617 and the viability ([14]; 3 µM) was 0.321. For the same compound, the viability ([14]; 15 µM) was 0.0186, the viability ([15]; 0.024 µM) was 0.966 and the viability ([15]; 0.12 µM) was 0.966. The viability ([15]; 0.6 µM) was 0.9, the viability ([15]; 3 µM) was 0.654 and the viability ([15]; 15 µM) was 0.0173. The viability ([16]; 0.024 µM) was 1.03, the viability ([16]; 0.12 µM) was 0.924 and the viability ([16]; 0.6 µM) was 0.961. The viability ([16]; 3 µM) was 0.626, the viability ([16]; 15 µM) was 0.023 and the viability ([17]; 0.024 µM) was 0.991. For the same compound, the viability ([17]; 0.12 µM) was 1.04, the viability ([17]; 0.6 µM) was 0.939 and the viability ([17]; 3 µM) was 0.86. For the same compound, the viability ([17]; 15 µM) was 0.0194.
